Where “and” joins values, the source holds several entries; their conditions need not be identical. Identical values can stand only once. Toxic doses and inconclusive results are not listed. Cut-off read from the data, not from the text of the source: active = T/C of 150% or more; inactive = T/C below 125%.
Test system: L1210 leukemia ip in BDF1 mice, survival T/C
Assay: NCI In Vivo Anticancer Drug Screen. Data for tumor model L1210 Leukemia (intraperitoneal) in B6D2F1 (BDF1) mice
Conditions: endpoint: mean survival time, higher = longer survival
In short: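 Value reflects the ratio of survival in compound-treated mice to survival in vehicle-treated controls, with both groups carrying the same transplanted tumor.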

[1] = dose: 25.0 mg/kg/injection, schedule: Q01DX009 (ip), vehicle: saline
[2] = dose: 50.0 mg/kg/injection, schedule: Q01DX001 (ip), vehicle: carboxymethylcellulose (CMC)
[3] = dose: 100.0 mg/kg/injection, schedule: Q01DX001 (ip), vehicle: carboxymethylcellulose (CMC)
[4] = dose: 200.0 mg/kg/injection, schedule: Q01DX001 (ip), vehicle: carboxymethylcellulose (CMC)
[5] = dose: 100.0 mg/kg/injection, schedule: Q04DX003 (ip), vehicle: saline with Tween-80
[6] = dose: 200.0 mg/kg/injection, schedule: Q04DX003 (ip), vehicle: saline with Tween-80
[7] = dose: 400.0 mg/kg/injection, schedule: Q04DX003 (ip), vehicle: saline with Tween-80
[8] = dose: 100.0 mg/kg/injection, schedule: Q01DX009 (ip), vehicle: saline with Tween-80
[9] = dose: 200.0 mg/kg/injection, schedule: Q01DX009 (ip), vehicle: saline with Tween-80
[10] = dose: 400.0 mg/kg/injection, schedule: Q01DX009 (ip), vehicle: saline with Tween-80
[11] = dose: 100.0 mg/kg/injection, schedule: Q04DX003 (ip), vehicle: Klucel (hydroxypropylcellulose) (HPC)

Measured: T/C

CN(C)C1C(=O)C(C(=O)NCNC(CCS)C(=O)O)=C(O)C2(O)C(=O)C3=C(O)c4c(O)cccc4C(C)(O)C3CC12 (stereo unspecified)
inactive: dose: 20.0 mg/kg/injection, schedule: Q01DX Z (ip), vehicle: saline 104 % of control | dose: 40.0 mg/kg/injection, schedule: Q01DX Z (ip), vehicle: saline 98 % of control | dose: 80.0 mg/kg/injection, schedule: Q01DX Z (ip), vehicle: saline 96 % of control and 100 % of control | dose: 160.0 mg/kg/injection, schedule: Q01DX Z (ip), vehicle: saline 98 % of control and 101 % of control | dose: 320.0 mg/kg/injection, schedule: Q01DX Z (ip), vehicle: saline 100 % of control

[N-]=[N+]=NCC1OCOC1C1OCOC1CN=[N+]=[N-] (stereo unspecified)
inactive: [1] 96 % of control | dose: 50.0 mg/kg/injection, schedule: Q01DX009 (ip), vehicle: saline 98 % of control | dose: 100.0 mg/kg/injection, schedule: Q01DX009 (ip), vehicle: saline 102 % of control

NC(=S)N1CCCCC1
inactive: dose: 100.0 mg/kg/injection, schedule: Q01DX001 (ip), vehicle: saline 98 % of control | dose: 200.0 mg/kg/injection, schedule: Q01DX001 (ip), vehicle: saline 96 % of control

O=S(=O)(C=C(N1CCCCC1)N1CCCCC1)Cc1ccccc1
inactive: dose: 6.25 mg/kg/injection, schedule: Q01DX009 (ip), vehicle: saline 113 % of control | dose: 12.5 mg/kg/injection, schedule: Q01DX001 (ip), vehicle: saline 100 % of control | dose: 12.5 mg/kg/injection, schedule: Q01DX009 (ip), vehicle: saline 106 % of control | dose: 12.5 mg/kg/injection, schedule: Q04DX003 (ip), vehicle: saline 94 % of control | dose: 25.0 mg/kg/injection, schedule: Q01DX001 (ip), vehicle: saline 100 % of control | [1] 103 % of control | dose: 25.0 mg/kg/injection, schedule: Q04DX003 (ip), vehicle: saline 98 % of control | dose: 35.0 mg/kg/injection, schedule: Q01DX009 (ip), vehicle: acetone 101 % of control | dose: 50.0 mg/kg/injection, schedule: Q01DX001 (ip), vehicle: saline 106 % of control

Nc1nc(Cl)c(C=O)c(Cl)n1
inactive: dose: 25.0 mg/kg/injection, schedule: Q01DX001 (ip), vehicle: carboxymethylcellulose (CMC) 97 % of control | [2] 97 % of control | [3] 94 % of control | [4] 103 % of control

NNc1ccccc1C(=O)O
inactive: [2] 94 % of control | [3] 94 % of control | [4] 105 % of control | dose: 400.0 mg/kg/injection, schedule: Q01DX001 (ip), vehicle: carboxymethylcellulose (CMC) 94 % of control

CN(C)C(=O)Nc1cccc(OC(=O)NC2CCCCC2)c1
inactive: dose: 100.0 mg/kg/injection, schedule: Q01DX001 (ip), vehicle: saline with Tween-80 97 % of control | dose: 200.0 mg/kg/injection, schedule: Q01DX001 (ip), vehicle: saline with Tween-80 92 % of control | dose: 400.0 mg/kg/injection, schedule: Q01DX001 (ip), vehicle: saline with Tween-80 87 % of control

Cc1ccnc(NS(=O)(=O)c2ccc(N)cc2)n1
inactive: dose: 100.0 mg/kg/injection, schedule: Q04DX002 (ip), vehicle: saline with Tween-80 93 % of control | dose: 200.0 mg/kg/injection, schedule: Q04DX002 (ip), vehicle: saline with Tween-80 101 % of control | dose: 400.0 mg/kg/injection, schedule: Q04DX002 (ip), vehicle: saline with Tween-80 93 % of control

COC(OC)c1[nH]c(=S)[nH]c(=O)c1C
inactive: [5] 107 % of control | [6] 105 % of control | [7] 105 % of control

CC(=O)Oc1cc2c(cc1OC(C)=O)C(Br)CCCC2=O (stereo unspecified)
inactive: dose: 100.0 mg/kg/injection, schedule: Q01DX009 (ip), vehicle: other 96 % of control | dose: 100.0 mg/kg/injection, schedule: Q04DX003 (ip), vehicle: other 94 % of control | dose: 200.0 mg/kg/injection, schedule: Q01DX009 (ip), vehicle: other 93 % of control | dose: 200.0 mg/kg/injection, schedule: Q04DX003 (ip), vehicle: other 102 % of control | dose: 400.0 mg/kg/injection, schedule: Q01DX009 (ip), vehicle: other 104 % of control | dose: 400.0 mg/kg/injection, schedule: Q04DX003 (ip), vehicle: other 104 % of control

CCCCCCCCC(C(O)c1ccccc1)C(O)(C(F)(F)F)C(F)(F)F (stereo unspecified)
inactive: [8] 95 % of control | [9] 105 % of control | [10] 97 % of control

CCCCSCCC
inactive: [8] 98 % of control | [5] 117 % of control | [9] 98 % of control | [6] 96 % of control | [10] 94 % of control | [7] 94 % of control

O=C(C(Cl)Cl)C(Cl)Cl
inactive: dose: 10.0 mg/kg/injection, schedule: Q01DX001 (ip), vehicle: carboxymethylcellulose (CMC) 106 % of control

COC(=O)C(CCl)NC(=O)NCCCl (stereo unspecified)
inactive: dose: 100.0 mg/kg/injection, schedule: Q01DX001 (ip), vehicle: Klucel (hydroxypropylcellulose) (HPC) 96 % of control | dose: 200.0 mg/kg/injection, schedule: Q01DX001 (ip), vehicle: Klucel (hydroxypropylcellulose) (HPC) 96 % of control | dose: 400.0 mg/kg/injection, schedule: Q01DX001 (ip), vehicle: Klucel (hydroxypropylcellulose) (HPC) 96 % of control

OCCC[P+](c1ccccc1)(c1ccccc1)c1ccccc1
inactive: dose: 25.0 mg/kg/injection, schedule: Q01DX009 (ip), vehicle: Klucel (hydroxypropylcellulose) (HPC) 96 % of control | dose: 50.0 mg/kg/injection, schedule: Q01DX009 (ip), vehicle: Klucel (hydroxypropylcellulose) (HPC) 100 % of control | [11] 102 % of control

COC1=NS(=O)(=O)CC(N2C(=O)CCC2=O)O1 (stereo unspecified)
inactive: [11] 98 % of control | dose: 200.0 mg/kg/injection, schedule: Q04DX003 (ip), vehicle: Klucel (hydroxypropylcellulose) (HPC) 109 % of control | dose: 400.0 mg/kg/injection, schedule: Q04DX003 (ip), vehicle: Klucel (hydroxypropylcellulose) (HPC) 101 % of control
